A short description of data set [1]: Metabolic stability in mouse liver microsomes. Type of data set: in vitro ADME. The procedure:
Eq. 4 Predicted t1/2 t1/2=−0.693/λ (4) Where λ is the slope of the Ln % parent remaining vs. time curve. • v. Plasma protein binding. Plasma protein binding was determined in pooled human plasma using an ultracentrifugation method. Stock solutions of test compounds (10 mM) were diluted in phosphate buffer and spiked into plasma in deep well 96-well plates (10 µM). An aliquot of each compound was immediately precipitated with ice cold acetonitrile containing the internal standard carbamazepine (0.1 μM). These served as total concentration samples. After incubation in a water bath at 37°C for 1 h, the samples were transferred to ultracentrifuge tubes in duplicate and centrifuged for 4 h at 37°C and 30,000 g (Optima L-80XP, Beckman). Following centrifugation, the supernatant was transferred to the plate containing the total concentration samples and precipitated with ice cold acetonitrile containing the internal standard. Analyte concentrations of all compounds were determined via LC-MS/MS (reverse phase Gemini NX-C18 column and Shimadzu HPLC coupled with an AB Sciex 3200 Q TRAP MS) as described above. • vi. Metabolic stability. A 5-point metabolic stability assay in human and mouse liver microsomes were performed in duplicate in 96-well plates. […] The cofactor NADPH was added, and the reactions were subsequently stopped at time points 5, 10, 30 and 60 min by removal of an aliquot and quenching with ice cold acetonitrile containing the internal standard. The supernatant of all samples was analysed via LC-MS/MS analysis (reverse phase Gemini NX-C18 column and Shimadzu HPLC and AB Sciex 3200 Q TRAP MS) as described above.
A general note: Liver microsomes are a subcellular fraction often used to study metabolism.

A short description of data set [2]: Kinetic solubility in PBS. The format is physicochemical. Conditions: phosphate buffer saline (PBS), aqueous buffer, kinetic from dmso stock. The procedure:
. […] The aqueous mobile phase was water with 0.1% formic acid and the organic mobile phase was acetonitrile with 0.1% formic acid. The gradient method has a flow rate of 0.8 mL/min, with a total run time of 2.5 min starting at 5% organic and increasing to 95% at 1.4 min, holding for 40 s before returning to 5% to re-equilibrate the column. • ii. Lipophilicity. Stock solutions (10 mM) of compounds were diluted to 100 μM in 96-well deep-well plate containing 300 µL of 1-octanol and 300 µL of phosphate buffer at pH 7.4. The plate was agitated on an orbital shaker at 750 rpm for 2 h. The organic and buffer layers of each well were transferred separately to a new analysis plate. The samples were analysed with the HPLC diode array detection as described for kinetic solubility. Samples from both layers were analysed to determine LogD7.4 values. • iii. Passive permeability. A parallel artificial membrane permeation assay (PAMPA) was used to assess the passive permeability of compounds with a 96-well MultiScreen filter plate ([…] pore size, Millipore). The filter plate was precoated with 5% hexadecane in hexane. Stock solutions of compounds were diluted to 1 mM in a donor buffer (pH 6.5). Lucifer yellow was added to the apical wells of the precoated MultiScreen plate containing compound donor solution. The donor buffer solutions were spiked with each test compound (1 mM). The acceptor-buffer solution was prepared by adding 10 μL DMSO to 990 μL acceptor buffer (pH 7.4) and 250 μL were added to the basolateral (acceptor) wells. The donor plate was carefully inserted into the acceptor plate and incubated at room temperature for 4 h. After the incubation period, 50 μL of samples from the acceptor plate were transferred to a round bottom 96-well plate, together with 30 μL of donor buffer for matrix matching. Theoretical equilibrium samples for each test compound were prepared by adding 150 μL of donor solutions to 250 μL acceptor solutions and left at room temperature. These theoretical equilibrium samples represent complete transfer of the compound into the donor well. For the theoretical equilibrium samples, 80 μL were added to the analysis plate. Lastly, 160 μL of the internal standard carbamazepine (0.1 μM) was added to all acceptor and equilibrium samples. A portion of the sample containing Lucifer yellow was analyzed on a BioRad iMarkTM Microplate Absorbance Reader (BioRad, Hercules, CA, United States; […]. Samples were analysed using reverse phase Gemini NX-C18 column (5 μm, 2.1 mm × 50 mm) with a Shimadzu HPLC coupled with an AB Sciex 3200 Q TRAP MS). […]. Plasma stability. Stock solutions of compounds in DMSO (10 mM) were used to spike pooled human plasma. 90 μL of each sample was transferred in duplicate to 6 different wells of a 96-deep well plate. An aliquot of each sample was immediately quenched with ice cold acetonitrile containing the internal standard carbamazepine (0.1 µM), after which the plate was incubated in a water bath (37°C for […]). Aliquots of samples were removed at 5, 15, 40, 60 and 180 min and quenched with ice cold acetonitrile. After samples of the final time point were precipitated, the supernatant was transferred to a round bottom 96-well plate for analysis by LC-MS/MS using a reverse phase Gemini NX-C18 column (5 μm, 2.1 mm × 50 mm) with a Shimadzu HPLC coupled with an AB Sciex 3200 Q TRAP MS) operated at unit resolution in the multiple reaction monitoring (MRM) mode. The aqueous phase consisted of water with 0.1% formic acid and the organic mobile phase consisted of methanol and acetonitrile (1:1, (v/v)) with 0.1% formic acid. […]. The peak area ratios were used to calculate the amount of parent compound remaining and t1/2 in plasma, using the following equations.

The nature of data set [3]: Lipophilicity, 1-octanol/phosphate buffer pH 7.4. The format is physicochemical. Conditions: read-out: Lipophilicity LogD7.4.
Data set [4] relates to Chinese Hamster Ovary (CHO) cell line, CHO-K1. As to the kind of experiment: MTT cytotoxicity assay. The format is cell-based. The conditions noted are these: for IC50: Cricetulus griseus, CHO cells, MTT; for Selectivity index CHO/resistant Pf strain: cytotoxicity IC50/activity IC50, CHO/DD2; for Selectivity index CHO/sensitive Pf strain: cytotoxicity IC50/activity IC50, CHO/NF54. The procedure: Cytotoxicity assays were conducted against the Chinese Hamster Ovary (CHO) cell line, ATCC CCL-61, strain CHO-K1. […] Cells were grown at 37°C in a humidified atmosphere of 5% CO2 and maintained by passage. Cells lines were seeded in 96-well microtitre plates at 10^4 cells/well in cell medium. […] DMSO (100 µL) was added to dissolve the MTT formazan precipitate, and the plates were gently agitated for 2 min to ensure homogeneity. Absorbance was measured at 540 nm using a Turner BioSystems, Inc. ModulusTM II Microplate Reader. The data were analyzed by nonlinear regression analysis using the GraphPad PRISM version 5.00 program to determine the IC50 of each compound.
A general note: Tetrazolium dyes change colour on reduction, which living cells bring about.

Where [5] appears, read: PBS pH 2, read-out: Predicted solubility pH 2.
Where [6] appears, read: PBS pH 6.5, read-out: Predicted solubility pH 6.5.
Setting [7] is: PBS pH 7.4, read-out: Predicted solubility pH 7.4.

Where two headings read alike, the source gives them in different places. Bounds are passed on as bounds.

These results are taken from article PMC10800708, “Efficacies and ADME properties of redox active methylene blue and phenoxazine analogues for use in new antimalarial triple drug combinations with amino-artemisinins” (Frontiers in Pharmacology, 2024).

What is called CLint scaled is a measure of how fast metabolising enzymes remove a compound, apart from limits set by blood flow. In general, solubility refers to the concentration that dissolves in the medium under given conditions. Usually IC50 stands for the midpoint of a concentration-inhibition curve. A higher IC50 goes with weaker potency in that assay.

On to `CCN(CC)c1ccc2nc3ccc(=[N+](CC)CC)cc-3sc2c1` [AD01], for which the CLint scaled in data set [1] amounted to 80.6 mL/min/kg. Further, the solubility at 2 h in data set [2] (setting [5]), in data set [2] (setting [6]) and in data set [2] (setting [7]) was greater than 150 µM each time. In addition, in data set [3], the logD at 2 h amounted to 0.2. This compound also returned an IC50 in data set [4] of 74 ± 9.4 µM. Also, the “Selectivity index CHO/resistant Pf strain” value in data set [4] is given as >1,000. Further, the “Selectivity index CHO/sensitive Pf strain” value in data set [4] was >1,000.

In the case of `CCN(CC)c1ccc2nc3c4ccccc4/c(=N\c4ccccn4)cc-3oc2c1` [PhX6], the CLint scaled in data set [1] stood at 88.2 mL/min/kg. In addition, the solubility at 2 h in data set [2] (setting [5]) is greater than 150 µM. The solubility at 2 h in data set [2] (setting [6]) was less than 5 µM. Also, the solubility at 2 h in data set [2] (setting [7]) is less than 5 µM. For the same compound, the logD at 2 h in data set [3] was 1. Also, in data set [4], the IC50 amounted to 192 ± 4.6 µM, the “Selectivity index CHO/resistant Pf strain” value is recorded as >1,000 and the “Selectivity index CHO/sensitive Pf strain” value is on record as >1,000.
